Legend:
[1] = tested on: constitutive aphA-3-lacZ reporter; assay: E. coli constitutive aphA-3-lacZ reporter (pVT19), LasR reporter conditions; type: cell-based; details: Escherichia coli, read-out: IC50 ± CI, Constitutive reporter
Text: (§1) To characterize compounds for their potential activity as LasR antagonists, we used heterologous E. coli, which enables LasR to be isolated from other host regulation effects. We used an E. coli strain expressing LasR from an arabinose-inducible promoter (Para-lasR) on plasmid pJN105-L and a second plasmid with the LasR-inducible lasI promoter fused to a promoterless lacZ reporter (PlasI-lacZ) on plasmid pSC11-L (Fig. 2A). […] As a control, we also constructed an E. coli strain carrying a plasmid with lacZ expressed from the constitutive aphA-3 promoter ([29], [30]), pVT19.
(§2) To assess LasR activation of lasR expression in recombinant E. coli, we used E. coli strain DH5α carrying two plasmids; plasmid pJN105-L ([50]) with an arabinose-inducible P. aeruginosa lasR and plasmid pSC11-L ([51]) with the promoter of the LasR-responsive gene lasI fused to a lacZ reporter. For some studies, pJN105-L was replaced with derivatives of this plasmid encoding LasR mutants with single amino acid substitutions ([33]). To assess RhlR activation of rhlR expression in recombinant E. coli, we used E. coli DH5α with plasmid pECP61.5 ([38]) with an IPTG-inducible ptac-rhlR and an RhlR-responsive gene rhlA fused to the lacZ reporter. For constitutive expression of the lacZ reporter, we used E. coli DH5α with plasmid pVT19, which has the lacZ gene fused to the constitutive aphA-3 promoter. To construct pVT19, the constitutive aphA-3 promoter ([29], [30]) was amplified from a pTCV-lac derivative using primers Vlac1 and Vlac2 ([30]). The resulting amplicon was digested with EcoRI and BamHI and ligated into similarly digested pKS12A ([52]). The resulting plasmid with the aphA-3 promoter transcriptionally fused to lacZ was designated pVT19. For constitutive expression of the gfp reporter, we used E. coli DH5α with plasmid pUC18T-mini-Tn7T-Gm-gfpmut3 ([53]).
(§3) To assess LasR activation of lasR expression in recombinant E. coli, overnight cultures of E. coli DH5α pSC11-L and pJN105-L were diluted 1:100 into LB containing selection antibiotics gentamicin and ampicillin in 10 mL cultures. When the cultures reached an OD600 of 0.2–0.3, L-(+)-arabinose was added to a final concentration of 0.25%. […] Aliquots (5 µL) of increasing concentrations of inhibitor test compound stock solution in DMSO were then added to the designated micro centrifuge tubes containing culture. Tubes containing E. coli with just signal and DMSO were included as controls. After 3 h at 37°C with shaking, OD600 was measured using a plate reader, and β-galactosidase activity was measured as described above.
(§4) Experiments with the LasR mutants and the constitutive lacZ expression plasmid pVT19 or constitutive gfp expression plasmid pUC18T-mini-Tn7T-Gm-gfpmut3 were carried out identically as described above for the LasR or RhlR bioreporter experiments. Results with the […] constitutive reporter strain were different for the LasR vs RhlR bioreporter protocols likely due to differences in growth conditions (temperature and/or growth media).

RhlR = target: T1, RhlR (Pseudomonas aeruginosa, UniProt P54292); assay: E. coli RhlR bioreporter (pECP61.5, rhlA-lacZ), β-galactosidase readout; type: cell-based
T1 construct: expressed in transfected cells; host or cells: E. coli DH5α carrying pECP61.5
Text: (§5) To test the ability of our set of benzaldehydes and related compounds to antagonize RhlR, we generated dose-response curves with these compounds using an E. coli RhlR reporter strain (Fig. 6; Table 2). This strain is analogous to the LasR reporter above, but it carries plasmid pECP61.5 expressing RhlR from the isopropyl β-D-1-thiogalactopyranoside (IPTG)-inducible […] promoter as well as the rhlA-lacZ reporter ([38]). We also utilized our constitutive lacZ reporter plasmid pVT19 to generate dose-response curves using the RhlR assay conditions (Fig. 6; Table 2). […] With the constitutive lacZ reporter, there was a similar spread in potencies for our compounds, with ortho-vanillin having the lowest IC50 and salicylic acid as the highest. However, the IC50 for ortho-vanillin was fivefold lower with RhlR than with the constitutive lacZ reporter. There were also no observed effects of ortho-vanillin on growth until concentrations at which there was >50% antagonism of the RhlR reporter, and there was no antagonism of the constitutive lacZ reporter until concentrations >500 µM.
as §2
(§6) To assess RhlR activation of rhlR expression in recombinant E. coli, overnight cultures of E. coli DH5α pECP61.5 grown at 30°C in A medium containing antibiotic selection (ampicillin) and IPTG to induce RhlR expression were diluted to an OD600 of 0.1, and 1 mL was added to culture tubes containing dried C4-HSL. Aliquots (5 µL) of DMSO containing increasing concentrations of inhibitor test compound or DMSO with no test compound were added to the designated Eppendorf tubes containing culture. Tubes containing E. coli with signal and DMSO were included as vehicle control. After 5 h at 30°C with shaking, OD600 was measured using a plate reader, and β-galactosidase activity was measured as described above.

[2] = tested on: constitutive aphA-3-lacZ reporter; assay: E. coli constitutive aphA-3-lacZ reporter (pVT19), RhlR reporter conditions; type: cell-based, Escherichia coli; details: for IC50: Escherichia coli
Text: as §5, §2, §6, §4

LasR = target: T2, LasR (Pseudomonas aeruginosa, UniProt P25084); assay: E. coli LasR bioreporter (Para-lasR, PlasI-lacZ), β-galactosidase readout; type: cell-based; details: for IC50: IC50 ± CI, LasR reporter, competed against 100 nM 3OC12-HSL, 95% confidence interval in parentheses; for fold lower concentration inhibiting LasR-specific reporter than constitutive reporter: IC50 constitutive reporter vs LasR reporter
T2 construct: expressed in transfected cells; host or cells: E. coli DH5α carrying pJN105-L and pSC11-L
Text: as §1, §2, §3

LasR mutants [3] = assay: E. coli LasR mutant lasI-lacZ reporters (W60F, Y56F, T75V, Y93F, S129A); type: cell-based, Pseudomonas aeruginosa; details: W60F, Y56F, T75V, Y93F, S129A; competed against 3OC12-HSL at EC50 of each mutant
Text: (§7) To examine these putative interactions between ortho-vanillin and LasR, we determined the activity of ortho-vanillin in several LasR mutants. In prior studies in our laboratories, a set of LasR mutants were generated in which residues within the ligand-binding pocket were mutated to a different residue of similar steric size but without the capability to hydrogen bond (e.g., Tyr → Phe). These mutants were introduced into E. coli to generate lasI-lacZ reporters analogous to the wild-type LasR reporter above (see Table S1 and Materials and Methods). From that set, we selected five LasR mutant reporters to test ortho-vanillin (W60F, Y56F, T75V, Y93F, and S129A), which included the Thr75 and Ser129 residues predicted to be important for ortho-vanillin interaction in our in silico study. […] As a control, we also tested the ability of V-06–018 to antagonize the LasR S129A mutant. We used the same approach to test the ability of […] to antagonize LasR and the LasR S129A mutant. […] Results from one of the concentrations (100 µM) are shown instead.
as §2, with “The resulting amplicon was digested with EcoRI and BamHI and ligated into similarly digested pKS12A ([52]). The resulting plasmid with the aphA-3 promoter transcriptionally fused to lacZ was designated pVT19. For constitutive expression of the gfp reporter, we used E. coli DH5α with plasmid pUC18T-mini-Tn7T-Gm-gfpmut3 ([53]).” left out

LasR mutants [4] = target: T3, LasR mutants (Pseudomonas aeruginosa, UniProt P25084, S129A); assay: as above; type: cell-based; details: S129A mutant
T3 construct: expressed in transfected cells; host or cells: E. coli DH5α carrying pSC11-L and a pJN105-L mutant analog (pJG044, pJG008, pJG011, pJG012 or pJG014)
Text: as §7
as §2, with “The resulting amplicon was digested with EcoRI and BamHI and ligated into similarly digested pKS12A ([52]). The resulting plasmid with the aphA-3 promoter transcriptionally fused to lacZ was designated pVT19. For constitutive expression of the gfp reporter, we used E. coli DH5α with plasmid pUC18T-mini-Tn7T-Gm-gfpmut3 ([53]).” left out

[5] = tested on: constitutive GFP reporter; assay: E. coli constitutive GFP reporter (pUC18T-mini-Tn7T-Gm-gfpmut3); type: cell-based, Escherichia coli
Text: To test whether these effects were specific to the lacZ reporter or general to other reporters, we generated an orsellinaldehyde dose-response curve using a strain constitutively expressing GFP (E. coli carrying a constitutive GFP-producing plasmid pUC18T-mini-Tn7T-Gm-gfpmut3).
as §2, with “The resulting plasmid with the aphA-3 promoter transcriptionally fused to lacZ was designated pVT19. For constitutive expression of the gfp reporter, we used E. coli DH5α with plasmid pUC18T-mini-Tn7T-Gm-gfpmut3 ([53]).” left out

E. coli = assay: Growth (OD600) of E. coli reporter strain, LasR reporter conditions; type: cell-based, Escherichia coli; details: at the highest concentrations
Experimental: as §3

[6] = IC50 ± CI, RhlR reporter, competed against 400 nM C4-HSL, 95% confidence interval in parentheses
[7] = read-out: IC50 ± CI, Constitutive reporter

T2 sequence (P25084 whole entry): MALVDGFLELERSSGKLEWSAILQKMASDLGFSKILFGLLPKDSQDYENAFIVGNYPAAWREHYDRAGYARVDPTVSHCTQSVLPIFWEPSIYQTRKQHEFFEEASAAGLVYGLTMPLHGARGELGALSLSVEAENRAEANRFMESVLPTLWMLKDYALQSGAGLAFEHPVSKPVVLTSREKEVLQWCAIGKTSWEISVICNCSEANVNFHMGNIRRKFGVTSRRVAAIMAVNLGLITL
T1 sequence (P54292 whole entry): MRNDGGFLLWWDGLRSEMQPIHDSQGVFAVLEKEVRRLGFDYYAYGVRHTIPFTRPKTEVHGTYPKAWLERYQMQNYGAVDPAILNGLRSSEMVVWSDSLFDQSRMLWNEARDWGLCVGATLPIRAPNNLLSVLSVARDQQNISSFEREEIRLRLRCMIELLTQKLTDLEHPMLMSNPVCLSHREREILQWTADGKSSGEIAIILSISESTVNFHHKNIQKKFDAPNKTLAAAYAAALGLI
T3 sequence (P25084 whole entry S129A): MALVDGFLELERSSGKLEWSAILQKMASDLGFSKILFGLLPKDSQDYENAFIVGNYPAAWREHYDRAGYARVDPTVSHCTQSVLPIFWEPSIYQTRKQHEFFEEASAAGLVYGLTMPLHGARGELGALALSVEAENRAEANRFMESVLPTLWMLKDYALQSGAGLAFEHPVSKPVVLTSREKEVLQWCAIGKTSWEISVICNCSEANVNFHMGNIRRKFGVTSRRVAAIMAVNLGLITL

O=C/C=C/c1ccccc1 [Cinnamaldehyde]
IC50 [1]: 1460 µM | IC50 (RhlR; [6]): 1310 µM | IC50 [2, 7]: 2850 µM | IC50 (LasR): 851 µM

COc1ccc(C=O)c(O)c1 [2-hydroxy-4-methoxybenzaldehyde]
IC50 [1]: 1960 µM | IC50 (RhlR; [6]): 458 µM | IC50 [2, 7]: 1360 µM | IC50 (LasR): 1040 µM

COc1cccc(C=O)c1O [ortho-Vanillin]
IC50 [1]: 1260 µM | antagonism of LasR mutants compared with wild-type LasR (LasR mutants [3]): indistinguishable from that of the wild-type LasR | change in potency with varying C4-HSL concentration (competition test) (RhlR; C4-HSL at 400 nM, 10 µM and 100 µM): significant C4-HSL concentration-dependent decrease in the potency | fold lower IC50 with RhlR than with constitutive lacZ reporter (RhlR; IC50 constitutive lacZ reporter vs RhlR reporter): fivefold | IC50 (RhlR; [6]): 151 µM | IC50 ([2]; read-out: IC50, Constitutive reporter, Hill slope set at 1.0): 774 µM | IC50 [2, 7]: 872 µM | concentration until which there was no antagonism of the constitutive lacZ reporter ([2]; RhlR reporter conditions): > 500 µM | difference in IC50 with varying 3OC12-HSL concentration (competition test) (LasR; 3OC12-HSL at […] nM, 1 µM and 10 µM, P > 0.07): not significant | fold lower concentration inhibiting LasR-specific reporter than constitutive reporter (LasR): threefold | IC50 (LasR): 437 µM

CCCCCCCCCC(=O)CC(=O)Nc1ccccc1 [V-06–018]
antagonism of LasR S129A mutant compared with wild-type LasR (LasR mutants [4]; competed against 3OC12-HSL at its EC50): significantly less active | IC50, LasR S129A mutant (LasR mutants [4]; insufficient antagonism): could not be determined

O=C(O)c1ccccc1O [Salicylic acid, reference compound]
IC50 [1]: 3650 µM | IC50 (RhlR; IC50, RhlR reporter, competed against C4-HSL): ~10000 µM | IC50 (RhlR; [6]): 10000 µM | IC50 [2, 7]: 6260 µM

Cc1cc(O)cc(O)c1C=O [Orsellinaldehyde]
calculated LD50 of orsellinaldehyde with GFP ([5]; E. coli constitutive GFP reporter, Fig. S1 legend): 1057 µM | IC50 ([5]; Escherichia coli, read-out: IC50, constitutive GFP reporter): 1060 µM | IC50 [1]: 2310 µM | IC50 (RhlR; [6]): 956 µM | IC50 [2, 7]: 2750 µM | reduction of growth yield (E. coli): 10%–20% | IC50 (LasR): 2370 µM

Cc1ccc(O)c(C=O)c1 [2-hydroxy-5-methylbenzaldehyde]
IC50 [1]: 2020 µM | IC50 (RhlR; [6]): 1080 µM | IC50 [2, 7]: 1790 µM | fold lower concentration inhibiting LasR-specific reporter than constitutive reporter (LasR): 1.3 fold | IC50 (LasR): 1500 µM
